Experimental data from paper PMC5750218, “Protein-inspired antibiotics active against vancomycin- and daptomycin-resistant bacteria” (Nature Communications, 2018).
≈ marks a conversion by molar mass, not a printed value.

Experiments:
[1] = system: Methicillin-resistant S. aureus ATCC 43300; experiment: microbe, parasite or virus in culture; conditions: ATCC 43300, 24 h
Experimental: (§1) Antimicrobial activity of compounds was tested against a number of bacterial strains by broth microdilution (BMD) assay with MIC determination, including S. aureus (MSSA ATCC® 29213™, MRSA ATCC® 43300™, VISA NARSA NRS1, VISA NARSA NRS4), Streptococcus pneumoniae (MDR ATCC® 700677™) and Enterococcus faecium (MDR VanA ATCC® 51559™). ATCC strains were sourced from the American Type Culture Collection and NRS strains from NARSA (Network on Antimicrobial Resistance in S. aureus) via BEI Resources (www.beiresources.org). All compounds were prepared to 160 µg mL^−1 solution in water from a stock solution of 1 mM concentration.
[…] […] Standards ranged from 64 to 0.03 µg mL^−1 and compounds from 8 to 0.003 µg mL^−1 with final assay volumes of 100 µL per well. Gram-positive bacteria were cultured in Mueller Hinton broth (MHB) (Bactolaboratories, Cat. no. 211443) at 37 °C overnight. A sample of each culture was then diluted 40-fold in fresh MHB and incubated at 37 °C for 2–3 h. […] All the plates were covered and incubated at 37 °C for 24 h. MICs were the lowest concentration showing no visible growth.

Cytotoxicity MTT assay [2] = type: cell-based, human; conditions: human
Experimental: (§2) Compound cytotoxicity was evaluated against HepG2 (ATCC-®HB-8065 liver hepatoceullular carcinoma) and HEK293 (ATCC®CRL-1573, embryonic kidney) human cell lines using standard (3-(4,5-dimethylthiazol-2-yl)−2,5-diphenyltetrazolium bromide (MTT) assay protocol with slight changes. In brief, HepG2 and HEK293 cells (assessed annually for mycoplasma contamination) were seeded as 1.5 × 10^4 cells per well in a clear 96-well tissue culture treated plate in a final volume of 100 μL in Dulbecco’s Modified Eagle Medium (DMEM)(GIBCO-Invitrogen #11995-073), in which 1% of FBS was added. Cells were incubated for 24 h at 37 °C, 5% CO2 to allow cells to attach to the plates. Compounds prepared at 100 µM to 0.046 µM in threefold dilutions were added into each well and incubated for 24 h at 37 °C, 5% CO2. After the incubation, 0.4 mg mL^−1 MTT (3-(4,5-dimethylthiazol-2-yl)−2,5-diphenyltetrazolium bromide) (Invitrogen) was added to each well. The plates were then incubated for 2 h at 37 °C, 5% CO2. The media was removed, and purple formazan crystals were resuspended in 60 μL of DMSO. The absorbance was read at 570 nm using a Polarstar Omega plate reader. The data was then analysed by Prism software. Results are presented as the average percentage of control ± S.D. for each set of duplicate wells using the following equation: percent viability = (ABSTEST – ABSPOSITIVE CTRL / ABSUNTREATED –ABS POSITIVE CTRL)×100.

Cytotoxicity MTT assay [3] = type: cell-based, human; conditions: human; remark: listed apart in the source
Experimental: as §2, with “Compounds prepared at 100 µM to 0.046 µM in threefold dilutions were added into each well and incubated for 24 h at 37 °C, 5% CO2.” left out

[4] = system: Multi-drug-resistant S. pneumoniae ATCC 700677; experiment: microbe, parasite or virus in culture; conditions: ATCC 700677
Experimental: as §1
(§3) The compounds, along with standard antibiotics were serially diluted twofold across the wells of 96-well non-binding surface (NBS) polystyrene plates (Corning 3641). […] Standards ranged from 64 to 0.03 µg mL^−1 and compounds from 8 to 0.003 µg mL^−1 with final assay volumes of 100 µL per well. Gram-positive bacteria were cultured in Mueller Hinton broth (MHB) (Bactolaboratories, Cat. no. 211443) at 37 °C overnight. A sample of each culture was then diluted 40-fold in fresh MHB and incubated at 37 °C for 2–3 h. […] All the plates were covered and incubated at 37 °C for 24 h. MICs were the lowest concentration showing no visible growth.

[5] = system: Vancomycin-resistant (VanA) Enterococcus faecium ATCC 51559; experiment: microbe, parasite or virus in culture; conditions: ATCC 51559
Experimental: as §1, §3

[6] = system: Vancomycin-intermediate S. aureus NRS1; experiment: microbe, parasite or virus in culture; conditions: Vancomycin-intermediate NRS1
Experimental: as §1, §3

Structure (SMILES)	MIC MRSA [1]	MIC MDR S.P. [4]	MIC VRE [5]	MIC VISA [6]	CC50 at 24 h (Cytotoxicity MTT assay [2])	CC50 at 24 h (Cytotoxicity MTT assay [3])
CCCCCCCCCCCC(=O)NCC(=O)N[C@@H](CO)C(=O)N[C@@H](CO)C(=O)N[C@@H](CCCCN)C(=O)N[C@@H](CO)C(=O)N1CCC[C@H]1C(=O)N[C@@H](CO)C(=O)N[C@@H](CCCCN)C(=O)N[C@@H](CCCCN)C(=O)N[C@@H](CCCCN)C(=O)N[C@@H](CCCCN)C(=O)N[C@@H](CCCCN)C(=O)N[C@@H](CCCCN)C(=O)N1CCC[C@H]1C(=O)NCC(=O)N[C@@H](CC(=O)O)C(=O)N[C@@H](CSSCCNC(=O)[C@H]1NC(=O)[C@H]2NC(=O)[C@H](NC(=O)[C@@H]3NC(=O)[C@H](CC(N)=O)NC(=O)[C@H](NC(=O)[C@@H](CC(C)C)NC)[C@H](O)c4ccc(c(Cl)c4)Oc4cc3cc(c4O[C@@H]3O[C@H](CO)[C@@H](O)[C@H](O)[C@H]3O[C@H]3C[C@](C)(N)[C@H](O)[C@H](C)O3)Oc3ccc(cc3Cl)[C@H]2O)c2ccc(O)c(c2)-c2c(O)cc(O)cc21)C(N)=O [Compound 7]	0.09 µg/mL (≈ 0.0259 µM)	0.06 µg/mL (≈ 0.0173 µM)	0.02 µg/mL (≈ 0.00575 µM)	1 µg/mL (≈ 0.288 µM)	89 µM	65 µM
CCCCCCCCCC(=O)NCC(=O)N[C@@H](CO)C(=O)N[C@@H](CO)C(=O)N[C@@H](CCCCN)C(=O)N[C@@H](CO)C(=O)N1CCC[C@H]1C(=O)N[C@@H](CO)C(=O)N[C@@H](CCCCN)C(=O)N[C@@H](CCCCN)C(=O)N[C@@H](CCCCN)C(=O)N[C@@H](CCCCN)C(=O)N[C@@H](CCCCN)C(=O)N[C@@H](CCCCN)C(=O)N1CCC[C@H]1C(=O)NCC(=O)N[C@@H](CC(=O)O)C(=O)N[C@@H](CSSCCNC(=O)[C@H]1NC(=O)[C@H]2NC(=O)[C@H](NC(=O)[C@@H]3NC(=O)[C@H](CC(N)=O)NC(=O)[C@H](NC(=O)[C@@H](CC(C)C)NC)[C@H](O)c4ccc(c(Cl)c4)Oc4cc3cc(c4O[C@@H]3O[C@H](CO)[C@@H](O)[C@H](O)[C@H]3O[C@H]3C[C@](C)(N)[C@H](O)[C@H](C)O3)Oc3ccc(cc3Cl)[C@H]2O)c2ccc(O)c(c2)-c2c(O)cc(O)cc21)C(N)=O [Compound 6]	2.5 µg/mL (≈ 0.725 µM)	3 µg/mL (≈ 0.87 µM)	1.25 µg/mL (≈ 0.362 µM)	>8 µg/mL	> 100 µM	> 100 µM
CCCCCCCCCCCCCCCC(=O)NCC(=O)N[C@@H](CO)C(=O)N[C@@H](CO)C(=O)N[C@@H](CCCCN)C(=O)N[C@@H](CO)C(=O)N1CCC[C@H]1C(=O)N[C@@H](CO)C(=O)N[C@@H](CCCCN)C(=O)N[C@@H](CCCCN)C(=O)N[C@@H](CCCCN)C(=O)N[C@@H](CCCCN)C(=O)N[C@@H](CCCCN)C(=O)N[C@@H](CCCCN)C(=O)N1CCC[C@H]1C(=O)NCC(=O)N[C@@H](CC(=O)O)C(=O)N[C@@H](CSSCCNC(=O)[C@H]1NC(=O)[C@H]2NC(=O)[C@H](NC(=O)[C@@H]3NC(=O)[C@H](CC(N)=O)NC(=O)[C@H](NC(=O)[C@@H](CC(C)C)NC)[C@H](O)c4ccc(c(Cl)c4)Oc4cc3cc(c4O[C@@H]3O[C@H](CO)[C@@H](O)[C@H](O)[C@H]3O[C@H]3C[C@](C)(N)[C@H](O)[C@H](C)O3)Oc3ccc(cc3Cl)[C@H]2O)c2ccc(O)c(c2)-c2c(O)cc(O)cc21)C(N)=O [Compound 9]	0.06 µg/mL (≈ 0.017 µM)	0.125 µg/mL (≈ 0.0354 µM)	8 µg/mL (≈ 2.26 µM)	2 µg/mL (≈ 0.566 µM)	7 µM	4 µM

Now from value to molecule, other results behind:

MIC MRSA [1]	MIC MDR S.P. [4]	MIC VRE [5]	MIC VISA [6]	Structure (SMILES)	CC50 at 24 h (Cytotoxicity MTT assay [2])	CC50 at 24 h (Cytotoxicity MTT assay [3])
0.06 µg/mL (≈ 0.0259 µM)	<0.003 µg/mL		0.007 µg/mL (≈ 0.00302 µM)	CCCCCCCCCCCCCC(=O)NCC(=O)N[C@@H](CO)C(=O)N[C@@H](CCCCN)C(=O)N[C@@H](CCCCN)C(=O)N[C@@H](CCCCN)C(=O)N[C@@H](CCCCNC(=O)[C@H]1NC(=O)[C@H]2NC(=O)[C@H](NC(=O)[C@@H]3NC(=O)[C@H](CC(N)=O)NC(=O)[C@H](NC(=O)[C@@H](CC(C)C)NC)[C@H](O)c4ccc(c(Cl)c4)Oc4cc3cc(c4O[C@@H]3O[C@H](CO)[C@@H](O)[C@H](O)[C@H]3O[C@H]3C[C@](C)(N)[C@H](O)[C@H](C)O3)Oc3ccc(cc3Cl)[C@H]2O)c2ccc(O)c(c2)-c2c(O)cc(O)cc21)C(=O)O [Compound 16, nC13CO-GSKKK-K(Vancomycin)-OH]	53 µM	18 µM
0.16 µg/mL (≈ 0.0513 µM)	0.09 µg/mL (≈ 0.0288 µM)	0.125 µg/mL (≈ 0.04 µM)	0.5 µg/mL (≈ 0.16 µM)	CCCCCCCCCCCCCC(=O)NCC(=O)N[C@@H](CO)C(=O)N[C@@H](CO)C(=O)N[C@@H](CCCCN)C(=O)N[C@@H](CO)C(=O)N1CCC[C@H]1C(=O)N[C@@H](CO)C(=O)N[C@@H](CCCCN)C(=O)N[C@@H](CCCCN)C(=O)N[C@@H](CCCCN)C(=O)N1CCC[C@H]1C(=O)NCC(=O)N[C@@H](CC(=O)O)C(=O)N[C@@H](CSSCCNC(=O)[C@H]1NC(=O)[C@H]2NC(=O)[C@H](NC(=O)[C@@H]3NC(=O)[C@H](CC(N)=O)NC(=O)[C@H](NC(=O)[C@@H](CC(C)C)NC)[C@H](O)c4ccc(c(Cl)c4)Oc4cc3cc(c4O[C@@H]3O[C@H](CO)[C@@H](O)[C@H](O)[C@H]3O[C@H]3C[C@](C)(N)[C@H](O)[C@H](C)O3)Oc3ccc(cc3Cl)[C@H]2O)c2ccc(O)c(c2)-c2c(O)cc(O)cc21)C(N)=O [Compound 11]	18 µM	9 µM
0.09 µg/mL (≈ 0.0305 µM)	0.06 µg/mL (≈ 0.0203 µM)	0.007 µg/mL (≈ 0.00237 µM)	0.5 µg/mL (≈ 0.17 µM)	CCCCCCCCCCCCCC(=O)NCC(=O)N[C@@H](CO)C(=O)N[C@@H](CO)C(=O)N[C@@H](CCCCN)C(=O)N[C@@H](CO)C(=O)N1CCC[C@H]1C(=O)N[C@@H](CO)C(=O)N[C@@H](CCCCN)C(=O)N[C@@H](CCCCN)C(=O)N[C@@H](CCCCN)C(=O)N1CCC[C@H]1C(=O)N[C@@H](CSSCCNC(=O)[C@H]1NC(=O)[C@H]2NC(=O)[C@H](NC(=O)[C@@H]3NC(=O)[C@H](CC(N)=O)NC(=O)[C@H](NC(=O)[C@@H](CC(C)C)NC)[C@H](O)c4ccc(c(Cl)c4)Oc4cc3cc(c4O[C@@H]3O[C@H](CO)[C@@H](O)[C@H](O)[C@H]3O[C@H]3C[C@](C)(N)[C@H](O)[C@H](C)O3)Oc3ccc(cc3Cl)[C@H]2O)c2ccc(O)c(c2)-c2c(O)cc(O)cc21)C(N)=O [Compound 12]	41 µM	26 µM
